Experimental data taken from patent publication US20120093917A1, “METNASE AND INTNASE INHIBITORS AND THEIR USE IN TREATING CANCER” (priority 2009, published 2012).

Experiments:
[1] = system: human Pancreatic cancer cell line BXPC3; assay: Colony formation assay, pancreatic cancer cell line BXPC3; type: cell-based; conditions: BXPC3, FIG. 16; for potentiation of gemcitabine (surviving colonies): 2 μM inhibitor + 0.3 μg/ml gemcitabine, 18 hrs, normalized to gemcitabine; for activity on their own against the pancreatic cancer cells (surviving colonies): 2 μM inhibitor, 18 hrs treatment, colonies after 14 days, normalized to DMSO
Procedure: (§1) The human Pancreatic cancer cell line BXPC3 was plated (4000 cells per plate with a ˜10% plating efficiency) in 10 cm dishes, using 10 ml of RPMI media (always with 10% FBS) per plate, and placed in a […] incubator (5% CO2) for 24 hrs. After 24 hrs, each plate was treated with one or a combination of the following agents: DMSO (0.2% in solution), 0.3 μg/ml of gemcitabine (dissolved in 1×PBS), and/or 2 μM of each Metnase/Intnase inhibitor (dissolved in DMSO). When the DMSO, gemcitabine, and/or inhibitors were added, the plates were swirled several times to assure mixing. After the agents were added to the RPMI, the plates were put back into the incubators for 18 hrs. Following 18 hrs treatment, the media was removed and the cells were washed twice with 1×PBS. Ten ml of fresh RPMI with 10% FBS was added and the cells were placed back into the incubator for 14 days. After the incubation period that will allow surviving cells to form colonies, the media was discarded and surviving colonies were stained with methylene blue. Colonies, a reflection of a single surviving cell that expanded, were counted to measure survival. All experiments were run in triplicate. Experiments were normalized to either DMSO (black asterices) or gemcitabine (red asterices).

[2] = system: CYP3A; conditions: cited from earlier work
[3] = system: cancer cells; assay: Summary statements: cytotoxicity for cancer cells alone and with chemotherapy; type: cell-based; conditions: summary statement referring to figures
Procedure: as §1
(§2) The human colon cancer cell line SW48 was plated (1000 cells per plate with a ˜20% plating efficiency) in 10 cm dishes, using 10 ml of DMEM media (always with 10% FBS) per plate, and placed in a […] incubator (5% CO2) for 24 hrs. After 24 hr, each plate was treated with one or a combination of the following agents: DMSO (0.2% in solution), 3 μM 5-fluorouracil (5FU, dissolved in 1×PBS), and/or 2 μM of each Metnase/intnase inhibitor (dissolved in DMSO). When the DMSO, 5FU, and/or inhibitors were added, the plates were swirled several times to assure mixing. After agents were added to the DMEM, the plates were put back into the incubators for 18 hr. Following 18 hr treatment, the media was removed and the cells were washed twice with 1×PBS. Ten milliliters of fresh DMEM was added and the cells were placed back into the incubator for 7-14 days. After the incubation period that will allow surviving cells to grow and form colonies, media was discarded and surviving colonies were stained with methylene blue. Colonies, a reflection of a single surviving cell that expanded, were counted to measure survival. All experiments were run in triplicate. Experiments were normalized to either DMSO (black asterices) or 5FU (red asterices).
(§3) The human myeloid cell line KG-1 was grown in RPMI1640 with 10% FBS. The small cell lung cancer cell line CRL5898 was grown in HITES medium (Dulbecco's medium: Ham's F12, 50:50 mix, Insulin 0.005 mg/ml Transferrin 0.01 mg/ml Sodium selenite 30 nM Hydrocortisone 10 nM beta-estradiol 10 nM HEPES 10 mM L-glutamine 2 mM (in addition to that in the base medium)). Both cell lines were seeded at 10,000 cells/ml in the appropriate medium in 6 well plates. The Chem Div compounds were resuspended as 5 mM stock solutions in DMSO. The Chem Div compounds were added alone at 2 uM and 5 uM or in combination with VP-16 (also called etoposide) at 0.05 uM. DMSO was added to the control wells. Cells were plated and treated in triplicate and counted daily for 4 days.

[4] = in vivo; cited from earlier work
[5] = system: human colon cancer cell line SW48; assay: Colony formation assay, colon cancer cell line SW48; type: cell-based; conditions: 2 μM inhibitor, 18 hr treatment, colonies after 7-14 days, normalized to DMSO, FIG. 17
Procedure: as §2

[6] = system: human DNA polymerases; conditions: cited from earlier work
[7] = system: human myeloid cell line KG-1; assay: Leukemia cell line KG-1 growth curve, alone or with VP-16; type: cell-based; conditions: counted daily for 4 days
Procedure: as §3

[8] = system: cytochrome P450 enzymes; conditions: cited from earlier work
[9] = biological target: 166 enzymes, transporters and receptors; conditions: read-out: IC50 in screening panel, all assays; cited from earlier work
[10] = biological target: ABCB1 (MDR-1; P-gp) (Homo sapiens, UniProt P08183); conditions: not told; cited from earlier work
Sequence of ABCB1 (MDR-1; P-gp) (P08183 whole entry, species assumed): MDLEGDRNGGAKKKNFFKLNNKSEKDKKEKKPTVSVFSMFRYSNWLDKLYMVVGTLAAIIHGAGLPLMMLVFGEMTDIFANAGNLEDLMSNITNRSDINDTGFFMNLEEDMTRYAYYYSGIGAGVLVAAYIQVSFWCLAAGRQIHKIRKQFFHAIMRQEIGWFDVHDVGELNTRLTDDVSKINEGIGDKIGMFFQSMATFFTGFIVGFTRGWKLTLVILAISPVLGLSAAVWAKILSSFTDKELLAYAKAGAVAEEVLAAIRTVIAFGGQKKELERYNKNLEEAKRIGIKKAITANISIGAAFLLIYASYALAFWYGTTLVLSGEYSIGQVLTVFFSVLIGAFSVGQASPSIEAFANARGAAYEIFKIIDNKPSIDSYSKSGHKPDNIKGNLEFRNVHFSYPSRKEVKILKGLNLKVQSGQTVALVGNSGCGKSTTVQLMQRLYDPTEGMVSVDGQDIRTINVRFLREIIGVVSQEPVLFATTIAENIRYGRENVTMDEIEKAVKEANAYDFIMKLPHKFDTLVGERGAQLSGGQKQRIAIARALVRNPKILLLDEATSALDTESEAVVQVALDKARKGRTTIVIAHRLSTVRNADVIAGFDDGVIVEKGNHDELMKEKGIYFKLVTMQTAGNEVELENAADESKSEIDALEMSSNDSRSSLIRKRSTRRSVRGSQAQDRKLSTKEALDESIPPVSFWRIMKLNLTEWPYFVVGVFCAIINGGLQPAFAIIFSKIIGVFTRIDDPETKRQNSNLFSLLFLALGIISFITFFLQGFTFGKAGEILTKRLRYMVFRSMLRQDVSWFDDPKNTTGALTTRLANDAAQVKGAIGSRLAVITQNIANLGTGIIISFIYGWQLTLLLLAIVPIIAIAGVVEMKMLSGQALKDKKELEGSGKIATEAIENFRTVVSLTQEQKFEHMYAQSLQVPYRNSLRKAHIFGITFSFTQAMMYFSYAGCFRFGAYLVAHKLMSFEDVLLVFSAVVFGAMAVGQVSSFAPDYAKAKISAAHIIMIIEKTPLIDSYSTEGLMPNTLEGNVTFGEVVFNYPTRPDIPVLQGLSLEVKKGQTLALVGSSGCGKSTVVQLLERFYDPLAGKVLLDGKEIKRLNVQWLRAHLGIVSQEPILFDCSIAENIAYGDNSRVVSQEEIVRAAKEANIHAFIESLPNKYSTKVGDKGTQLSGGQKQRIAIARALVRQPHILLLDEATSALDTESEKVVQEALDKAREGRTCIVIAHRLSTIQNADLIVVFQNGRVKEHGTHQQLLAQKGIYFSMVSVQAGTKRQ

Row | SMILES | potentiation of gemcitabine (surviving colonies) [1] | activity on their own against the pancreatic cancer cells (surviving colonies) [1] | CYP3A induction [2] | cytotoxicity for cancer cells, compound alone [3] | Serum half-life [4] [h] | activity on their own against the colon cancer cells (surviving colonies) [5] | inhibition of human DNA polymerases [6] | effect of compound alone on KG-1 growth, lower/low dose ([7]; lower (low) dose of compound (added at 2 uM and 5 uM)) | potentiation of low dose VP-16 on KG-1 growth, lower/low dose of compound ([7]; lower (low) dose of compound + VP-16 0.05 uM) | substrate, inducer or inhibitor of cytochrome P450 enzymes [8] | IC50 [9] [µM] | inhibitor of ABCB1 (MDR-1; P-gp) [10]
1 | COc1cc2c(cc1Cc1cccc(Cl)c1F)c(=O)c(C(=O)O)cn2[C@H](CO)C(C)C [Elvitegravir, 6-[(3-chloro-2-fluorophenyl)methyl]-1-[(2S)-1-hydroxy-3-methylbutan-2-yl]-7-methoxy-4-oxoquinoline-3-carboxylic acid, reference compound] | potentiate gemcitabine | activity on their own | moderate CYP3A inducer | cytotoxic for cancer cells alone | 3 | – | – | – | – | – | – | –
2 | Cc1nnc(C(=O)NC(C)(C)C2=N/C(=C(\O)NCc3ccc(F)cc3)C(=O)C(=O)N2C)o1 [Raltegravir, N-[2-[(4Z)-4-[[(4-fluorophenyl)methylamino]-hydroxymethylidene]-1-methyl-5,6-dioxopyrimidin-2-yl]propan-2-yl]-5-methyl-1,3,4-oxadiazole-2-carboxamide] | potentiate gemcitabine | activity on their own | – | – | 9 | activity on their own | does not inhibit | little effect on leukemia cell growth | potentiated the anti-proliferative effect of low dose VP-16 | not a substrate, nor an inducer or inhibitor | > 10 | not an inhibitor
